Results from ChEMBL document CHEMBL3351300, “GnRH antagonists: the promise of treating sex-hormone-related diseases” (ACS Med Chem Lett, 2014).

Target: T1, Gonadotropin-releasing hormone receptor (Homo sapiens, UniProt P30968)
T1 sequence (P30968 whole entry): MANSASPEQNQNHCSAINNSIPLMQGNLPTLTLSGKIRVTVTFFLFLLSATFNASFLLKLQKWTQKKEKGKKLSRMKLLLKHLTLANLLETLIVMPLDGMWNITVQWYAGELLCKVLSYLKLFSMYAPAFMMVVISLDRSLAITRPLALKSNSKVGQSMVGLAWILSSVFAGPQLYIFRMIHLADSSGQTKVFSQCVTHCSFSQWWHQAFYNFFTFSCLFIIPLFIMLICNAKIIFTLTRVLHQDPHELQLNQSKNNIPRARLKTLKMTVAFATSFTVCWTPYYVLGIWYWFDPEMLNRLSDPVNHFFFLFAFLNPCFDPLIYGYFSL
Experiment: Antagonist activity against human GnRH receptor expressed in CHO cells by IP-one HTRF assay
Assay type: cell-based

How did the IC50 turn out when `O=C(NCc1ncc(Cl)cc1C(F)(F)F)c1ccc2c(c1)C1(CCS(=O)(=O)CC1)C(C1CC1)N2S(=O)(=O)c1ccc(F)cc1` (single isomer, unassigned; enantiomer 1) was run?
Its IC50 is 3.3 nM.

How did the IC50 turn out when `N#Cc1cccc(S(=O)(=O)N2c3ccc(C(=O)NCc4ncc(C(F)(F)F)cc4F)cc3C3(CCS(=O)(=O)CC3)C2C2CC2)c1` (single isomer, unassigned; enantiomer 1) was run?
The IC50 was 107 nM.

With `O=C(NCc1ncc(C(F)(F)F)cc1Cl)c1ccc2c(c1)C1(CCS(=O)(=O)CC1)C(C1CC1)N2S(=O)(=O)c1cccc(OC(F)(F)F)c1` (single isomer, unassigned; enantiomer 1) as the compound, how does the IC50 read?
The IC50 was 68 nM.

With `O=C(NCc1ncc(C(F)(F)F)cc1Cl)c1ccc2c(c1)C1(CCS(=O)(=O)CC1)C(C1CC1)N2S(=O)(=O)c1ccc(Cl)cc1` (single isomer, unassigned; enantiomer 1) as the compound, how does the IC50 read?
Its IC50 is 9350 nM.

How did the IC50 turn out when `O=C(NCc1ncc(Cl)cc1C(F)(F)F)c1ccc2c(c1)C1(CCS(=O)(=O)CC1)C(C1CC1)N2S(=O)(=O)c1ccc(F)cc1` (single isomer, unassigned; enantiomer 2) was run?
Its IC50 is 4080 nM.

With `N#Cc1cccc(S(=O)(=O)N2c3ccc(C(=O)NCc4ncc(C(F)(F)F)cc4F)cc3C3(CCS(=O)(=O)CC3)C2C2CC2)c1` (single isomer, unassigned; enantiomer 2) as the compound, how does the IC50 read?
The IC50 was 2310 nM.

With `O=C(NCc1ncc(C(F)(F)F)cc1Cl)c1ccc2c(c1)C1(CCS(=O)(=O)CC1)C(C1CC1)N2S(=O)(=O)c1cccc(OC(F)(F)F)c1` (single isomer, unassigned; enantiomer 2) as the compound, how does the IC50 read?
Its IC50 is 4210 nM.

With `O=C(NCc1ncc(C(F)(F)F)cc1Cl)c1ccc2c(c1)C1(CCS(=O)(=O)CC1)C(C1CC1)N2S(=O)(=O)c1ccc(Cl)cc1` (single isomer, unassigned; enantiomer 2) as the compound, how does the IC50 read?
Its IC50 is 5.5 nM.
